Laboratory results taken from ChEMBL document CHEMBL1177696, “Heat shock protein 70 (hsp70) as an emerging drug target” (J Med Chem, 2010).
In brackets after ≈: the same amount, converted by molar mass.

Columns and labels:
[1] = Inhibition of APIase activity of Escherichia coli MC4100 DNAK
Escherichia coli [2] = assay: Antibacterial activity against Escherichia coli MC4100; assay type: functional
[3] = Binding affinity to Escherichia coli DNAK substrate binding domain by isothermal titration assay
[4] = system: Yersinia pseudotuberculosis; assay: Antibacterial activity against Yersinia pseudotuberculosis; assay type: functional
Escherichia coli [5] = assay: Antibacterial activity against Escherichia coli; assay type: functional
Escherichia coli [6] = assay: Inhibition of Escherichia coli DNAK at 150 uM
[7] = Cytotoxicity against human erythrocytes assessed as hemolysis after 30 mins by spectrometric analysis; assay type: cell-based; details: Erythrocyte, 0.5 h
[8] = Antiproliferative activity against human bladder cancer cells; assay type: functional, cell-based; details: Cancer cell lines
[9] = Antiproliferative activity against human colon cancer cells; assay type: functional, cell-based; details: Cancer cell lines
[10] = Antiproliferative activity against human breast cancer cells; assay type: functional, cell-based; details: Cancer cell lines
Escherichia coli [11] = assay: Ratio of ciprofloxacin MIC to compound MIC for Escherichia coli; assay type: functional
[12] = Alpha half life in renal transplant patient; assay type: ADME, organism-based; details: human, in vivo; read-out: alphat1/2
[13] = Binding affinity to HSP90 EEVD domain by mass spectroscopy
[14] = Terminal half life in renal transplant patient; assay type: ADME, organism-based; details: human, in vivo; read-out: beta t1/2 (converted)
[15] = molecular target: Heat shock cognate 71 kDa protein (Homo sapiens) (UniProt P11142); assay: Binding affinity to HSC70 EEVD domain by mass spectroscopy
Saccharomyces cerevisiae = assay: Induction of ATPase activity of yeast cytosolic HSC70
L1210 = assay: Antitumor activity against mouse L1210 cells xenografted in CDF1 mouse assessed as log reduction in tumor burden; assay type: functional
[16] = Inhibition of Escherichia coli DNAK by luciferase-refolding assay

Sequence of Heat shock cognate 71 kDa protein (Homo sapiens) (P11142 2-646 limits assumed): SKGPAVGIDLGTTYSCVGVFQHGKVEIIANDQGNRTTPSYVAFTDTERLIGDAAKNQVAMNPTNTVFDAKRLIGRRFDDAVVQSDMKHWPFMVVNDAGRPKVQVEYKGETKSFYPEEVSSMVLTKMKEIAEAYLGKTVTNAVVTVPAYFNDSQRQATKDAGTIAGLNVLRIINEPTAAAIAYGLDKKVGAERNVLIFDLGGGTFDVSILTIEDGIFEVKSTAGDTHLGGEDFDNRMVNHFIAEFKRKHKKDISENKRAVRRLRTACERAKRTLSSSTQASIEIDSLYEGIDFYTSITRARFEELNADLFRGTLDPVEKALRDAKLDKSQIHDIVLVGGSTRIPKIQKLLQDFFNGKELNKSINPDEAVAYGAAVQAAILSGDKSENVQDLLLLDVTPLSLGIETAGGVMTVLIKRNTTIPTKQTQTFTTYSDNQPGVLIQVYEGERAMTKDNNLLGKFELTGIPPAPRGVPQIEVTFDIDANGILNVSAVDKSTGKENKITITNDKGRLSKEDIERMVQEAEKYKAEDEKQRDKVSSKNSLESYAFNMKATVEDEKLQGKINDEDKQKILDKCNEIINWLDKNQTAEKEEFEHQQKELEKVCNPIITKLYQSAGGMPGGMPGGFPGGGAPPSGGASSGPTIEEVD

Molecule: CCCCCCCCCCCCCCC(=O)NCc1ccc(C(=O)N[C@H](C(=O)O)[C@@H](C)CC)cc1
- IC50 [1]: 5 µM
- MIC (Escherichia coli [2]): 380 µg/mL (≈ 778 µM)

Molecule: O=C(NCc1ccccc1F)c1cccs1
- Kd [3]: 70 µM
- MIC [4]: 10 µM (≈ 2.35 µg/mL)
- MIC (Escherichia coli [5]): 10 µM (≈ 2.35 µg/mL)

Molecule: CC1=C(C(=O)OCc2ccccc2)C(c2ccc(C3CCCCC3)cc2)NC(=O)N1CCCCCC(=O)O (configuration not stated)
- inhibition (Escherichia coli [6]): 80%

Molecule: CCCCCCCCCCCCCCCCC(=O)NCc1ccc(C(=O)N[C@H](C(=O)O)[C@@H](C)CC)cc1
- IC50 [1]: 1.2 µM
- MIC (Escherichia coli [2]): 180 µg/mL (≈ 348 µM)

Molecule: CCCC/C=C\CCCCCCCCC(=O)NCc1ccc(C(=O)N[C@H](C(=O)O)[C@@H](C)CC)cc1
- IC50 [1]: 36 µM
- MIC (Escherichia coli [2]): 280 µg/mL (≈ 575 µM)
- EC50 [7]: > 1500 µg/mL

Molecule: CCn1c(=O)/c(=C2\Sc3ccccc3N2C)s/c1=C\c1cccc[n+]1CC
- IC50 [8]: 1 µM
- IC50 [9]: 1 µM
- IC50 [10]: 1 µM

Molecule: H-GRPDKPRPYLPRPRPPRPVRI-OH
- Ratio (Escherichia coli [11]): 4

Molecule: O=C(Nc1ccc2[nH]ccc2c1)c1cccs1
- Kd [3]: 12.7 µM
- MIC [4]: 10 µM (≈ 2.42 µg/mL)
- MIC (Escherichia coli [5]): 10 µM (≈ 2.42 µg/mL)

Molecule: N=C(N)NCCCCCCC(=O)N[C@@H](O)C(=O)NCCCCNCCCN
- half-life [12]: 5 min
- Activity [13]: 5 µM
- half-life [14]: 2 h
- Activity [15]: 5 µM
- Activity (Saccharomyces cerevisiae): 20%
- FC (L1210): 4

Molecule: COC(=O)C1=C(CCc2ccccc2)NC(=O)NC1c1ccc([N+](=O)[O-])cc1 (configuration not stated)
- EC50 [16]: 4 µM

Molecule: Cc1ccc(NC(=O)c2ccc([N+](=O)[O-])o2)cc1
- MIC [4]: < 12 µM
- MIC (Escherichia coli [5]): 10 µM (≈ 2.46 µg/mL)
